Reference: publication PMC10564737, “Structure-based design of a phosphotyrosine-masked covalent ligand targeting the E3 ligase SOCS2” (Nature Communications, 2023)
Values joined by “and” are separate entries in the source; they are usually repeats but may differ in a detail not shown here. Equal entries are not always repeated.

Target: T1, SBC2 (Homo sapiens, UniProt O14508)
T1 construct: SOCS2 (amino acids 32–198); His6 (N, cleaved yes); made in house; host or cells: E. coli BL21(DE3)
Assay: Covalent fluorescence polarization (FP) probe displacement assay
Assay type: binding
Description: With the specific covalent modification of Cys111 established, we decided to fully characterize MN551 as a covalent SOCS2 inhibitor. […] (Fig. 2g, h, Supplementary Fig. 9). Due to the covalent nature of the competing inhibitor, a time-dependent reduction in the fraction of protein-bound probe is observed. […] This value illustrates reasonable specificity for a covalent inhibitor, with nonetheless scope for future optimization. In addition to characterizing the kinetic covalency parameters, we have also assessed the stability of the MN551 by monitoring its reactivity (half-life >70 min) with reduced glutathione (GSH) (Supplementary Fig. 10)[35].
To monitor the SBC2-ligand binding kinetics we designed a fluorescein-labeled small-molecule probe - compound 26. The fluorescence polarization (anisotropy) of a threefold serial dilution of 50 µM SBC2 in 10 nM of the probe in 100 mM HEPES pH 7.5, 50 mM NaCl, 0.5 mM TCEP, 2% DMSO was measured to determine the KL (Supplementary Fig. 9A) (BMG Labtech PHERAstar – firmware v1.33). Protein titration and the curves were fitted using GraphPad Prism 9, using one-site fitting models to determine the probe binding constant, KL. Samples were run in triplicate in 384 well plates, using a total volume per well of 16 μL. The bound fraction of the probe is measure using the equation:1 Fb=Af−A/Af−Ab Where,
A time-dependent reduction in probe anisotropy were measured for a 2-fold serial dilution of […] compound MN551 in 10 nM probe +300 μM SBC2. To determine the initial reversible binding affinity, the initial bound fraction of the probe at time = 0, Fbo (the y-intercept in Fb v/s Time plot, Supplementary Fig. 9B) was plotted against MN551 concentration, and the obtained IC50 is then converted to Ki (Supplementary Fig. 9C)[17]. The slope from Fb versus time graph when divided by Fbo gives rate of covalency, kobs. A plot of kobs v/s MN551 concentration using Michaelis–Menten model of GraphPad Prism 9, provides the parameters kinact (maximum potential rate of inactivation) and KI (concentration of MN551 at which kobs = kinact/2) (Supplementary Fig. 9D, E).
The observed first-order rate constant, kobs is related to KI and kinact by the equation:2 kobs=kinactI/KI+I
At [I]«[KI] the above equation is converted to3 […]
The slope from the plot of kobs against concentration of MN551 gives us the covalent efficiency parameter kinact/KI (Supp Fig. 9F)[30],[33].

[1] = MN551 260.308 nM, Cycle 12 (55 min)
[2] = MN551 260.308 nM, Cycle 19 (90 min), n=1
[3] = MN551 364.432 nM, Cycle 6 (25 min)
[4] = MN551 364.432 nM, Cycle 12 (55 min)
[5] = MN551 364.432 nM, Cycle 19 (90 min), n=1
[6] = MN551 510.204 nM, Cycle 6 (25 min)
[7] = MN551 510.204 nM, Cycle 12 (55 min)
[8] = MN551 510.204 nM, Cycle 19 (90 min), n=1
[9] = MN551 714.286 nM, Cycle 6 (25 min)
[10] = MN551 714.286 nM, Cycle 12 (55 min)
[11] = MN551 714.286 nM, Cycle 19 (90 min), n=1
[12] = MN551 781.25 nM, Cycle 6 (25 min)
[13] = MN551 1000 nM, Cycle 6 (25 min)
[14] = MN551 1000 nM, Cycle 12 (55 min)
[15] = MN551 1000 nM, Cycle 19 (90 min), n=1

T1 sequence (O14508 32-198): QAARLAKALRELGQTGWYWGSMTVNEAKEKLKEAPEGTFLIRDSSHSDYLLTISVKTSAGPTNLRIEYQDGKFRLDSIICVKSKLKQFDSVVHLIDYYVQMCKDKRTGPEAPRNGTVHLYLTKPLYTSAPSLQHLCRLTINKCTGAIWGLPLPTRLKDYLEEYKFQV
T1 sequence (Q15370 1-104 partner limits assumed): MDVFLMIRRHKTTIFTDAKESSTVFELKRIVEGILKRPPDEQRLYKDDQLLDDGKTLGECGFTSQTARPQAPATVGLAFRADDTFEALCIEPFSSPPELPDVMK
T1 sequence (Q15369 17-112 partner limits assumed): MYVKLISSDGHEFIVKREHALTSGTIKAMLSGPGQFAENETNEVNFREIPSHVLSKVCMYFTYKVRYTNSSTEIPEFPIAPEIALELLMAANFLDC

O=C(CCl)Nc1cccc(CNC(=O)[C@H](Cc2ccc(OP(=O)(O)O)cc2)NC(=O)Cc2ccc(F)cc2)c1 [MN551]
Fb (MN551 260.308 nM, Cycle 6 (25 min)): 0.9065 and 0.9342 and 0.9573 | Anisotropy [1]: 262.5 and 259.9 and 257.4 | Fb [1]: 0.8574 and 0.8591 and 0.8311 | Anisotropy data 485,520,520 [2]: 254.9 and 255 and 252.4 | Anisotropy normalised (0 nM MN551 = 1, free probe = 0) [2]: 0.8373 and 0.852 and 0.8299 | Anisotropy normalised (0 nM MN551 = 1, free probe = 0) (MN551 260.308 nM, Cycle 20 (95 min), n=1): 0.8182 and 0.7955 and 0.8068 | Anisotropy based on Raw Data (485) (MN551 364.432 nM, Cycle 7 (30 min)): 266.3 and 261.1 and 263 | Normalised anisotropy (0 nM MN551 = 1, free probe = 0) (MN551 364.432 nM, Cycle 13 (60 min), n=1): 0.8082 and 0.788 and 0.7925 | Normalised anisotropy (0 nM MN551 = 1, free probe = 0) (MN551 364.432 nM, Cycle 14 (65 min), n=1): 0.8132 and 0.8023 and 0.7716 | Normalised anisotropy (0 nM MN551 = 1, free probe = 0) (MN551 364.432 nM, Cycle 15 (70 min), n=1): 0.8109 and 0.8027 and 0.7817 | Fb, fraction bound (MN551 364.432 nM, Cycle 3 (10 min)): 0.8953 and 0.9033 and 0.8725 | Anisotropy data 485,520,520 [3]: 261.2 and 252.2 and 253.6 | Fb [3]: 0.8702 and 0.8783 and 0.9647 | Anisotropy [4]: 258 and 255.4 and 255.3 | Fb [4]: 0.8155 and 0.8159 and 0.8109 | Anisotropy data 485,520,520 [5]: 251.5 and 248.8 and 245.6 | Anisotropy normalised (0 nM MN551 = 1, free probe = 0) [5]: 0.8046 and 0.79 and 0.7638 | Anisotropy normalised (0 nM MN551 = 1, free probe = 0) (MN551 364.432 nM, Cycle 20 (95 min), n=1): 0.7592 and 0.7548 and 0.7585 | Anisotropy based on Raw Data (485) (MN551 390.625 nM, Cycle 7 (30 min)): 269.8 and 271.4 and 267.4 | Fb, fraction bound (MN551 390.625 nM, Cycle 2 (5 min)): 0.9917 and 0.9704 and 0.9496 | Fb, fraction bound (MN551 390.625 nM, Cycle 3 (10 min)): 0.9862 and 0.9672 and 0.9437 | Anisotropy (MN551 390.625 nM, Cycle 12 (55 min)): 270.6 and 267.1 and 265.1 | Anisotropy based on Raw Data (485) (MN551 510.204 nM, Cycle 7 (30 min)): 261.7 and 259.3 and 261 | Anisotropy based on Raw Data (485) (MN551 510.204 nM, Cycle 8 (35 min)): 261.5 and 258.9 and 258.8 | Normalised anisotropy (0 nM MN551 = 1, free probe = 0) (MN551 510.204 nM, Cycle 13 (60 min), n=1): 0.7484 and 0.7226 and 0.7442 | Normalised anisotropy (0 nM MN551 = 1, free probe = 0) (MN551 510.204 nM, Cycle 14 (65 min), n=1): 0.7755 and 0.7213 and 0.7092 | Normalised anisotropy (0 nM MN551 = 1, free probe = 0) (MN551 510.204 nM, Cycle 15 (70 min), n=1): 0.7476 and 0.7154 and 0.7087 | Fb, fraction bound (MN551 510.204 nM, Cycle 3 (10 min)): 0.8721 and 0.8651 and 0.8107 | Anisotropy data 485,520,520 [6]: 257.3 and 244.3 and 249.4 | Fb [6]: 0.8302 and 0.8538 and 0.9038 | Anisotropy [7]: 252.2 and 248.3 and 248.9 | Fb [7]: 0.7614 and 0.7478 and 0.7495 | Anisotropy data 485,520,520 [8]: 243.6 and 240.1 and 238.9 | Anisotropy normalised (0 nM MN551 = 1, free probe = 0) [8]: 0.7286 and 0.703 and 0.6987 | Anisotropy normalised (0 nM MN551 = 1, free probe = 0) (MN551 510.204 nM, Cycle 20 (95 min), n=1): 0.6867 and 0.6831 and 0.6676 | Anisotropy based on Raw Data (485) (MN551 714.286 nM, Cycle 7 (30 min)): 257.5 and 256.2 and 255.9 | Anisotropy based on Raw Data (485) (MN551 714.286 nM, Cycle 8 (35 min)): 256 and 254.7 and 255.3 | Normalised anisotropy (0 nM MN551 = 1, free probe = 0) (MN551 714.286 nM, Cycle 14 (65 min), n=1): 0.7189 and 0.6657 and 0.6727 | Normalised anisotropy (0 nM MN551 = 1, free probe = 0) (MN551 714.286 nM, Cycle 15 (70 min), n=1): 0.6832 and 0.6708 and 0.6558 | Fb, fraction bound (MN551 714.286 nM, Cycle 3 (10 min)): 0.8072 and 0.8019 and 0.7869 | Anisotropy data 485,520,520 [9]: 249.8 and 245.7 and 246.8 | Fb [9]: 0.8082 and 0.8312 and 0.8793 | Anisotropy [10]: 245.4 and 244 and 241.6 | Fb [10]: 0.698 and 0.7066 and 0.6795 | Fb (MN551 714.286 nM, Cycle 13 (60 min)): 0.6773 and 0.6691 and 0.6737 | Anisotropy data 485,520,520 [11]: 235.3 and 235.8 and 229.2 | Anisotropy normalised (0 nM MN551 = 1, free probe = 0) [11]: 0.6487 and 0.66 and 0.6045 | Anisotropy normalised (0 nM MN551 = 1, free probe = 0) (MN551 714.286 nM, Cycle 20 (95 min), n=1): 0.6238 and 0.6124 and 0.601 | Anisotropy based on Raw Data (485) (MN551 781.25 nM, Cycle 7 (30 min)): 264.8 and 264.3 and 257.5 | Fb, fraction bound (MN551 781.25 nM, Cycle 2 (5 min)): 0.8861 and 0.914 and 0.9072 | Fb, fraction bound (MN551 781.25 nM, Cycle 3 (10 min)): 0.8842 and 0.8716 and 0.861 | Anisotropy data 485,520,520 [12]: 261.7 and 267.5 and 267.1 | Fb [12]: 0.8257 and 0.8639 | Anisotropy (MN551 781.25 nM, Cycle 12 (55 min)): 254.6 and 253.4 and 251.5 | Anisotropy based on Raw Data (485) (MN551 1000 nM, Cycle 7 (30 min)): 254.7 and 249.8 and 251.7 | Anisotropy based on Raw Data (485) (MN551 1000 nM, Cycle 8 (35 min)): 251.7 and 250.9 and 246 | Normalised anisotropy (0 nM MN551 = 1, free probe = 0) (MN551 1000 nM, Cycle 14 (65 min), n=1): 0.5934 and 0.6045 and 0.5749 | Normalised anisotropy (0 nM MN551 = 1, free probe = 0) (MN551 1000 nM, Cycle 15 (70 min), n=1): 0.5741 and 0.5664 and 0.5538 | Fb, fraction bound (MN551 1000 nM, Cycle 3 (10 min)): 0.7627 and 0.7851 and 0.7345 | Anisotropy data 485,520,520 [13]: 247.9 and 241.8 and 240.6 | Fb [13]: 0.7763 and 0.812 | Anisotropy [14]: 234.4 and 236.4 and 233.2 | Fb [14]: 0.5955 and 0.6337 and 0.5988 | Fb (MN551 1000 nM, Cycle 13 (60 min)): 0.5631 and 0.5917 and 0.6014 | Anisotropy data 485,520,520 [15]: 220.4 and 223.8 and 219.7 | Anisotropy normalised (0 nM MN551 = 1, free probe = 0) [15]: 0.5053 and 0.54 and 0.5121 | Anisotropy normalised (0 nM MN551 = 1, free probe = 0) (MN551 1000 nM, Cycle 20 (95 min), n=1): 0.4971 and 0.4767 and 0.4821
